{"source": "patent US20080254497A1", "about": "“Response Predictors for Erbb Pathway-Specific Drugs” (MONOGRAM BIOSCIENCES, INC., priority 2004, published 2008)", "key": {"Her2-Her3 heterodimers": {"target": "T1, Her2-Her3 heterodimers (Homo sapiens, UniProt P21860)", "T1 construct": "endogenous in cells; host or cells: MCF-7", "assay": "Releasable molecular tag assay of cell lysates for Her2-Her3 heterodimers", "assay_type": "cell-based", "settings": "MCF-7 cells, increasing ligand concentrations, 10 minutes at 37° C., FIG. 4C", "description": "Measurements are made using three binding compounds and a cleaving probe as described below.\n7.3.1 Sample Preparation: • 1. Serum-starve breast cancer cell line culture overnight before use. • 2. […] Aspirate culture media, transfer onto ice, and add lysis buffer to lyse cells in situ. • 4. Scrape and transfer lysate to microfuge tube. Incubate on ice for 30 min. Microfuge at 14,000 rpm, 4° C., for 10 min. (Centrifugation is optional.) • 5. Collect supernatants as lysates and aliquot for storage at −80° C. until use.\nAssay design: As illustrated diagrammatically in FIG. 4A, Her2-Her3 heterodimers (900) are quantified ratiometrically based on the binding of cleaving probe (902) and binding compounds (904), (906), and (908). A photosensitizer indicated by “PS” is attached to cleaving probe (902) via an avidin-biotin linkage, and binding compounds (904), (906), and (908) are labeled with molecular tags Pro14, Pro10, and Pro11, respectively. Binding compound (904) is specific for a phosphorylation site on Her3.\nThe total assay volume is 40 ul. The lysate volume is adjusted to 30 ul with lysis buffer. […]\n7.3.3 Data Analysis: • 1. Normalize relative fluorescence units (RFU) signal of each molecular tag against CE reference standard A315 (a fluorescein-derivatized deoxyadenosine monophosphate that has known peak position relative to molecular tags from the assay upon electrophoretic separation). • 2. […]"}, "Her1 phosphorylation": {"test_system": "Her1 phosphorylation", "assay": "Releasable molecular tag assay of cell lysates for Her1 phosphorylation", "assay_type": "cell-based, human", "settings": "BT-20 cells, increasing ligand concentration, FIG. 6B", "description": "Sample preparation was carried out essentially as described in Example 2.\nAssay design: A monoclonal antibody specific to the receptor is separately conjugated with either a molecular tag or biotin (that is then linked to a photosensitizer via an avidin bridge), so that the cleaving probe and a binding compound compete to bind to the same epitope in this example. Another binding compound is used that consists of a second antibody recognizing an overlapping epitope on the receptor, so that a ratiometric signal can be generated as a measure of homodimerization. The signal derived from the second antibody also provides a measure of the total amount of receptor in a sample. The total amount of receptor is determined in a separate assay well. Receptor phosphorylation can be quantified together with either homodimerization or total receptor amount.\nThe assay volume is 40 ul and the general procedure is similar to that of Example 2. Two assay wells, A and B, are set up for each sample to quantify homodimerization and total amount of receptor separately.\n• Pro10_anti-Her-1: 0.05-0.1 ug/ml • Pro2_anti-phospho-Tyr: 0.1 ug/ml • Biotin_anti-Her-1: 1-2 ug/ml\n7.5.2 Data Analysis: • 1. Normalize RFU signal of each molecular tag against CE reference standard A315. • 2. Subtract RFU of “no lysate” background control from corresponding molecular tag signals. • 3. […]"}, "[1]": {"test_system": "Her receptor phosphorylation", "assay": "Fixed cell pellet sections, receptor phosphorylation", "assay_type": "cell-based, human", "settings": "100 nM vs non-stimulated", "description": "In this example, model fixed tissues made from pelleted cell lines were assayed for the presence of Her receptor dimers. The assay design for heterodimers was essentially the same as that described in FIG. 4A, with exceptions as noted below. That is, four components are employed: (i) a cleaving probe comprising a biotinylated monoclonal antibody conjugated to a cleavage-inducing moiety (in this example, a photosensitizer-derivatized streptavidin, as illustrated in FIG. 3E) and specific for one of the receptors of the dimer, (ii) a monoclonal antibody derivatized with a first molecular tag and specific for the same receptor as the cleaving probe, (iii) a monoclonal antibody derivatized with a second molecular tag and specific for the receptor opposite to that the cleaving probe is specific for, and (iv) a monoclonal antibody derivatized with a third molecular tag and specific for an intracellular phosphorylated tyrosine. The assay design for homodimers was essentially the same as that described in FIG. 1D, with exceptions as noted below.\nIn each case, model fixed tissues were prepared as follows: cells grown on tissue culture plates were stimulated with either EGF or HRG as described in the prior examples, after which they were washed and removed by scrapping. […]"}, "[2]": {"test_system": "human cell lines (head and neck, breast, and gastric)", "settings": "cited from earlier work"}, "[3]": {"test_system": "activation of EGFR, erbB2, Erk1/2, and Akt", "settings": "treatment of tumor xenografts; cited from earlier work"}}, "data": [{"compound": "EGF: epidermal growth factor, peptide that binds to the cell-surface EGFR; used to stimulate cell lines", "values": [{"measurement": "quantity of Her2-Her3 heterodimers", "setting": "Her2-Her3 heterodimers", "value": "essentially no change"}, {"measurement": "quantity of Her1 phosphorylation", "setting": "Her1 phosphorylation", "value": "increases"}, {"measurement": "Her receptor phosphorylation", "setting": "[1]; fixed pellets of 22Rv1 cells, FIG. 15D", "value": "up-regulation"}, {"measurement": "intracellular phosphorylation", "setting": "[1]; fixed pellets of MDA-MB-468 cells, FIG. 15A", "value": "increases"}]}, {"compound": "CS(=O)(=O)CCNCc1ccc(-c2ccc3ncnc(Nc4ccc(OCc5cccc(F)c5)c(Cl)c4)c3c2)o1", "note": "[GW572016]", "values": [{"measurement": "IC90, growth inhibition of human cell lines", "setting": "[2]; head and neck, breast, and gastric cell lines in vitro", "value": "< 1.313", "unit": "µg/mL"}, {"measurement": "outgrowth following cessation of treatment", "setting": "[2]; up to 18 days following cessation of treatment", "value": "no outgrowth observed"}, {"measurement": "activation of EGFR, erbB2, Erk1/2, and Akt in tumor xenografts", "setting": "[3]", "value": "inhibition"}]}]}
